Like-named read-outs stand apart in the source and are kept apart here. Blank lines part the entries; values can stand above or below the compound they belong to.
Experiments:
[1] = cited from earlier work
steroid sulphatase (STS) = target: T1, steroid sulphatase (STS) (Homo sapiens, UniProt P08842); conditions: compared with EMATE; cited from earlier work
T1 sequence (P08842 22-583): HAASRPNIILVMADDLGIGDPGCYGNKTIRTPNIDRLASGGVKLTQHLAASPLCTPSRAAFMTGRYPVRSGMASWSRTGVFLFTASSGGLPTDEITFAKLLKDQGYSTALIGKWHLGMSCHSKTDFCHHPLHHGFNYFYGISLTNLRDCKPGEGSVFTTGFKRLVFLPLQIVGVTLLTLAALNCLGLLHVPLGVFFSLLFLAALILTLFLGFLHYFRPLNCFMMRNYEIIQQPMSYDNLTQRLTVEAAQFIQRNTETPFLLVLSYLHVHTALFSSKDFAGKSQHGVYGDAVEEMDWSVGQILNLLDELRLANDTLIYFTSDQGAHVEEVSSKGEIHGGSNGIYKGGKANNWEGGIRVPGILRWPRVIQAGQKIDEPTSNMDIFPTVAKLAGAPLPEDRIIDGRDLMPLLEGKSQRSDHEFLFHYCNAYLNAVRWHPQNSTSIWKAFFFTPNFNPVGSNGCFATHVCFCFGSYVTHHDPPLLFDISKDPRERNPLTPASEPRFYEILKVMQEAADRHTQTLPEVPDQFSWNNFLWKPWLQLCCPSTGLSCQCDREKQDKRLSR

Plate assay % inhibition = type: cell-based; conditions: -ve % means stimulation
[2] = pKa determination by potentiometric titration; conditions: water/methanol (1:1)
[3] = in vivo; cited from earlier work
liver E1-STS [4] = target: T2, liver E1-STS (Rattus norvegicus, UniProt P15589); test: In vivo inhibition of rat liver steroid sulphatase
T2 construct: samples of liver tissue were removed and immediately frozen on solid carbon dioxide; from tissue; host or cells: rat liver (female Wistar rats, dosed p.o.)
T2 sequence (P15589 20-577): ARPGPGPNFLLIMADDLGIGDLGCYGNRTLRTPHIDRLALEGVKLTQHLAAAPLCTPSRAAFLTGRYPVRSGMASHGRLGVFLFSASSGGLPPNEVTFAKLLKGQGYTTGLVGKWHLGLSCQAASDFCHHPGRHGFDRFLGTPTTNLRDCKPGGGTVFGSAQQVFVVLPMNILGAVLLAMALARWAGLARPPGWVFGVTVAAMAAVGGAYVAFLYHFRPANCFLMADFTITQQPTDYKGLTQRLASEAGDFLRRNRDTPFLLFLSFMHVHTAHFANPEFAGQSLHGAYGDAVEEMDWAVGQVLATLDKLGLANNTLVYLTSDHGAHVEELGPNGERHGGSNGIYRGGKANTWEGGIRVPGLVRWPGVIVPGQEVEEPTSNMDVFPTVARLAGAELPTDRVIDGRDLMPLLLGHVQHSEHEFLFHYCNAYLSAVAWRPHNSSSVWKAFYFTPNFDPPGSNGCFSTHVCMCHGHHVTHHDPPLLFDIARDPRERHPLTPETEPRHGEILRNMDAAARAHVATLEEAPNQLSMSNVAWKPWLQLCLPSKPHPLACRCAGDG
Experimental: Inhibition of Oestrone Sulphatase Activity In Vivo
The compounds of the present invention may be studied using an animal model, in particular in ovariectomised rats. In this model compounds which are oestrogenic stimulate uterine growth.
The compound (0.1 mg/Kg/day for five days) is administered orally to rats with another group of animals receiving vehicle only (propylene glycol). At the end of the study samples of liver tissue were obtained and oestrone sulphatase activity assayed using 3H oestrone sulphate as the substrate as previously described (see PCT/GB95/02638).
For in vivo studies, female Wistar rats (Harlan Olac, Bicester, Oxon, United Kingdom) were used. Groups of rats, with three rats in each group for each experiment, were treated p.o. with vehicle (propylene glycol) or drug (1 mg and 10 mg/kg) with animals receiving a single dose. Animals were killed, using an approved procedure, 24 h after drug administration to assess the extent of steroid sulphatase inhibition. For this, samples of liver tissue were removed and immediately frozen on solid carbon dioxide and stored at −20° C. until assayed.

[5] = target: T3, oestrone sulphatase (E1-STS) (Homo sapiens, UniProt P08842); test: Inhibition of steroid sulphatase (E1-STS) activity in intact MCF-7 breast cancer cells; type: cell-based
T3 sequence (P08842 22-583): T1 sequence (P08842 22-583)

[6] = target: T3, oestrone sulphatase (E1-STS); test: Inhibition of steroid sulphatase activity in placental microsomes; type: biochemical; parameters: from tissue; host or cells: human term placenta (microsomal preparation)
liver E1-STS [7] = target: T2, liver E1-STS; conditions: administered either orally or subcutaneously; cited from earlier work
[8] = target: T3, oestrone sulphatase (E1-STS); conditions: 0.1 mM; cited from earlier work
[9] = target: T4, dehydroepiandrosterone sulphatase (DHA-STS) (Rattus norvegicus, UniProt P15589); conditions: administered either orally or subcutaneously; cited from earlier work
T4 construct: host or cells: rat liver
T4 sequence (P15589 20-577): T2 sequence (P15589 20-577)

[10] = 48% v/v aq. Ethanol, literature value; cited from earlier work

Structure (SMILES): COc1cc2c(cc1OS(N)(=O)=O)CC[C@@H]1[C@@H]2CC[C@]2(C)C(=O)CC[C@@H]12 [Compound 2-MeOEMATE, 2-methoxyoestrone-3-O-sulphamate, reference compound]
- oestrogenicity ([1]; rat, in vivo): devoid of oestrogenicity
- potency as a steroid sulphatase inhibitor (steroid sulphatase (STS)): equipotent with EMATE
- Plate assay % inhibition (Plate assay % inhibition; 0.1 μM): 15%
- Plate assay % inhibition (Plate assay % inhibition; 1 μM): 42%
- Plate assay % inhibition (Plate assay % inhibition; 10 μM): 88%

- pKa [2]: 9.11 ± 0.24
Structure (SMILES): O=C(c1ccc(O)cc1)c1ccc(O)cc1 [4,4′-dihydroxybenzophenone]

Structure (SMILES): C[C@]12CC[C@@H]3c4ccc(OS(=O)(=O)O)cc4CC[C@H]3[C@@H]1CCC2=O [Compound E1S, oestrone sulphate]
- half-life in blood [3]: 10 to 12 h

Structure (SMILES): NS(=O)(=O)Oc1ccc(C(=O)c2ccc(OS(N)(=O)=O)cc2)cc1 [Compound 3, Benzophenone-4,4′-O,O-bis-sulphamate]
- inhibition of rat liver E1-STS activity (liver E1-STS [4]; 24 h after a single oral dose of 1 mg/kg): 84%
- inhibition of rat liver E1-STS activity (liver E1-STS [4]; 24 h after a single oral dose of 10 mg/kg): 93%
- % Inhibition of E1-STS activity in MCF-7 cells ([5]; 0.1 μM): 71.41 ± 6.85%
- % Inhibition of E1-STS activity in MCF-7 cells ([5]; 0.1 μM, listed as BENZOMATE): > 70%
- % Inhibition of E1-STS activity in MCF-7 cells ([5]; 1 μM): 95.64 ± 2.07%
- % Inhibition of E1-STS activity in MCF-7 cells ([5]; 10 μM): 98.69 ± 2.82%
- % Inhibition of E1-STS activity in placental microsomes ([6]; 10 μM): 98.17 ± 0.05%
- % Inhibition of E1-STS activity in placental microsomes ([6]; 10 μM, listed as BENZOMATE): > 98%
- % Inhibition of E1-STS activity in placental microsomes ([6]; 50 µM): 99.03 ± 0.05%
- % Inhibition of E1-STS activity in placental microsomes ([6]; 100 µM): 99.2 ± 0.0%

Structure (SMILES): CC12CCC3c4ccc(OS(N)(=O)=O)cc4CCC3C1CCC2=O (stereo not drawn) [EMATE, oestrone-3-sulphamate]
- oral uterotrophic activity relative to oestradiol ([1]; rats, oral): 100 times
- inhibition of rat liver E1-STS activity (liver E1-STS [7]): 99%
- inhibition at 1 µM ([6]; 1 μM, -ve % means stimulation, read-out: Placental Microcsomes % inhibition): 98%
- inhibition of E1-STS activity in intact MCF-7 cells [8]: more than 99%
- inhibition of rat liver DHA-STS activity [9]: 99%

- pKa (physchem): 11 ± 0.13
Structure (SMILES): Oc1ccc(Cc2ccc(O)cc2)cc1 [bis-(4-hydroxyphenyl)methane]
- pKa [10]: 11.22
